pEC50: −log10 of the molar value.
System: KCNQ channels
Assay: Thallium flux assay for KCNQ channel openers
Assay type: cell-based
Settings: HEK-293 cells stably transfected with a KCNQ family member; for Min. conc. response: minimal active concentration: lowest concentration giving signal amplitude >= four standard deviations of negative controls; for pEC50: thallium flux, 10 point concentration series
Description: Thallium Flux Assay for KCNQ channel Openers. The thallium assay is a modification of that published by Weaver and is referenced in its entirety (Weaver, C. D. WO 02/31508, 2002).
Approximately 20,000 cells/well of an HEK-293 cell line stably transfected with one of the members of the KCNQ family were plated into clear-bottom, black-walled, poly-D-lysine coated, 384 well assay plates in 20 μl/well of low chloride plating medium. Low chloride plating medium was composed of the following: sodium gluconate, 109 mM; potassium gluconate, 5.4 mM; hemi-calcium gluconate, 3.6 mM; magnesium sulfate, 0.8 mM; sodium bicarbonate, 26.2 mM; sodium phosphate monobasic, 1.2 mM; glutamine, 2 mM; glucose, 5 mM; 4-(2-hydroxyethyl)-1-piperazineethanesulfonic acid (HEPES) (pH 7.3) 10 mM, MEM vitamin solution (10× concentration of vitamins, Gibco/LifeTechnologies 11120-052) and MEM amino acid solution (1× concentration of amino acids, Gibco/LifeTechnologies 11130-051).
Following overnight incubation in a 5% CO2 incubator at 37° C., the cells in the plates were loaded with 20 μl/well of a dye loading solution containing the commercially available thallium-sensitive fluorescent dye BTC-AM, the acetomethoxy ester of BTC (see U.S. Pat. No. 5,501,980) (2 μM) and pluronic acid F-127 (Molecular Probes P 6867) (0.02% w/v) in chloride free assay buffer. Chloride free assay buffer was composed of the following: sodium gluconate, 140 mM; potassium gluconate, 2.5 mM; hemi-calcium gluconate, 6 mM; hemi-magnesium gluconate, 2 mM; glucose, 5 mM; HEPES (pH 7.3), 10 mM.
Following incubation in the dye loading solution for from 45-90 min at room temperature, the dye loading solution was removed by aspiration and replaced with 40 μl/well of chloride free assay buffer.
Prior to addition to cell plates, test compound and standard compounds were dissolved in DMSO to 3 mM concentration. Compounds were then diluted from the 3 mM stock to 100-fold over the final assay concentration in DMSO. Finally, compounds in DMSO were diluted from 100-fold over the final assay concentration to 5-fold over the final assay concentration in chloride free assay buffer.
Ten μl/well of compounds at 5-fold over the final assay concentration were then added to the cell plates. This represents a 1:5 dilution, yielding the final test concentration. The wells used for test compounds were A1-P20. Wells A21-P22 contained a standard opener and a maximally efficacious concentration (positive control). Wells A23-P24 contained chloride free assay buffer containing 1% DMSO (negative control).
Following addition of test compounds, the plates were loaded onto the Molecular Devices FLIPR. The 488 nm line of the argon laser was used to excite the BTC and the emission filter was a 540(+/−30) nm. Images were collected at 1 Hz. Ten seconds of baseline were collected and then the FLIPR was used to add 13 μl/well of a stimulus buffer composed of 7.5 mM Tl2SO4 in chloride free assay buffer. Images were collected for an additional 60 seconds.
For data analysis, the amplitude of the average of the negative controls was subtracted from all wells. The amplitudes of the test compounds were then compared to the value of four standard deviations of the negative control wells. The lowest concentration of a test compound sufficient to generate a signal amplitude greater than or equal to four standard deviations from the amplitude of the negative controls was defined as the minimal active concentration.
For generating EC50 values, compounds were serially diluted in 1:3 volume increments to produce a 10 point concentration series. EC50 values were calculated by fitting the resulting amplitudes to a single-site logistic equation. EC50 was defined as the concentration of test compound required to yield 50% of the maximal response. Maximal response (Maximal opening) was the largest signal amplitude divided by the negative control amplitude generated by any concentration of a test compound. […]

`COc1ccc(-c2nc(C(F)(F)F)c(C(=O)N[C@@H](C)c3cccc(N4CCOCC4)c3)s2)c(OC)c1` [Example 31, 2-(2,4-dimethoxyphenyl)-4-(trifluoromethyl)-N-[1-[3-(4-morpholinyl)phenyl]ethyl]-5-thiazolecarboxamide] gave a Min. conc. response of 3 µM and a pEC50 of 4.70 to 6.00.

Work on `CCN(Cc1cccnc1-c1nc(C(F)(F)F)c(C(=O)NC(C)c2cccc(OC(F)(F)F)c2)s1)C(C)C` (stereo not drawn) [Example 70, 2-[3-[ethyl(2-propyl)aminomethyl]pyridin-2-yl]-4-(trifluoromethyl)-N-[1-[3-(trifluoromethoxy)phenyl]ethyl]-5-thiazolecarboxamide] yielded a Min. conc. response of 3 µM and a pEC50 of 6.00 to 7.30.

`CCN(Cc1ccncc1)Cc1cccnc1-c1nc(C(F)(F)F)c(C(=O)NC(C)c2cccc(CN3CCOCC3)c2)s1` (stereo not drawn) [Example 63] showed a Min. conc. response of 30 µM and a pEC50 of 6.00 to 7.30.

In the case of `COc1cccc(C(C)NC(=O)c2sc(-c3ccccc3N3CCOCC3)nc2C(F)(F)F)c1` (stereo not drawn) [Example 55, 2-[2-(4-morpholinyl)phenyl]-4-(trifluoromethyl)-N-[1-[3-(methoxy)phenyl]ethyl]-5-thiazolecarboxamide], the Min. conc. response was 0.3 µM and the pEC50 was 4.70 to 6.00.

Compound `CC(NC(=O)c1sc(-c2ccc(F)cc2)nc1C(F)(F)F)c1cccc(C(F)(F)F)c1` (stereo not drawn) [Example 83] has a Min. conc. response of 0.3 µM.

`COc1ccc(F)cc1-c1nc(C(F)(F)F)c(C(=O)NCc2cccc(F)c2)s1` [Example 44, 2-(5-fluoro-2-methoxyphenyl)-4-(trifluoromethyl)-N-[(3-fluorophenyl)methyl]-5-thiazolecarboxamide] was tested, and the Min. conc. response was 3 µM and the pEC50 was 6.00 to 7.30.

`COc1ccc(-c2nc(C(F)(F)F)c(C(=O)NC(C)c3ccc(OC)c(OC)c3)s2)cc1OC` (stereo not drawn) [Example 90] showed a Min. conc. response of 10 µM.

`Cc1cccnc1-c1nc(C(F)(F)F)c(C(=O)N[C@@H](C)c2cccc(-c3cccnc3)c2)s1` [Example 73, (S)-2-(3-methylpyridin-2-yl)-4-(trifluoromethyl)-N-[1-[3-(3-pyridinyl)phenyl]ethyl]-5-thiazolecarboxamide] gave a Min. conc. response of 0.3 µM and a pEC50 of 6.00 to 7.30.

For `COc1ccccc1-c1nc(C(F)(F)F)c(C(=O)NC(C)c2cccc(OC(F)(F)F)c2)s1` (stereo not drawn) [Example 18, 2-(2-methoxyphenyl)-4-(trifluoromethyl)-N-[1-[3-(trifluoromethoxy)phenyl]ethyl]-5-thiazolecarboxamide], the Min. conc. response was 0.3 µM and the pEC50 was > 7.30.

`CC(NC(=O)c1sc(-c2ccccc2N2CCOCC2)nc1C(F)(F)F)c1cccc(C(F)(F)F)c1` (stereo not drawn) [Example 56, 2-[2-(4-morpholinyl)phenyl]-4-(trifluoromethyl)-N-[1-[3-(trifluoromethyl)phenyl]ethyl]-5-thiazolecarboxamide] gave a Min. conc. response of 0.3 µM and a pEC50 of 6.00 to 7.30.

In the case of `COc1ccc(-c2nc(C(F)(F)F)c(C(=O)NC(C)c3cccc(C(F)(F)F)c3)s2)cc1OC` (stereo not drawn) [Example 89], the Min. conc. response was 30 µM.

`COc1ccccc1-c1nc(C(F)(F)F)c(C(=O)NC(C)c2cccc(NC(=N)N)c2)s1` (stereo not drawn) [Example 40, 2-(2-methoxyphenyl)-4-(trifluoromethyl)-N-[1-[3-(guanidinyl)phenyl]ethyl]-5-thiazolecarboxamide] showed a Min. conc. response of 30 µM and a pEC50 of 4.70 to 6.00.

For `COc1ccccc1-c1nc(C(F)(F)F)c(C(=O)NC(C)c2cccc(N)c2)s1` (stereo not drawn) [Example 39, 2-(2-methoxyphenyl)-4-(trifluoromethyl)-N-[1-(3-aminophenyl)ethyl]-5-thiazolecarboxamide], the Min. conc. response was 10 µM and the pEC50 was 4.70 to 6.00.

With `CCN(Cc1ccncc1)Cc1ccccc1-c1nc(C(F)(F)F)c(C(=O)NC(C)c2cccc(OC(F)(F)F)c2)s1` (stereo not drawn) [Example 113] the Min. conc. response was 0.3 µM.

`COc1ccc(-c2nc(C(F)(F)F)c(C(=O)NC(C)c3cccc(CN4CCCC4)c3)s2)cc1OC` (stereo not drawn) [Example 36, 2-(3,4-dimethoxyphenyl)-4-(trifluoromethyl)-N-[1-[3-[(1-pyrrolidinyl)methyl]phenyl]ethyl]-5-thiazolecarboxamide] was tested, and the Min. conc. response was 10 µM and the pEC50 was 4.70 to 6.00.

`COc1ccc(F)cc1-c1nc(C(F)(F)F)c(C(=O)NCc2cccc(OC(F)(F)F)c2)s1` [Example 46, 2-(5-fluoro-2-methoxyphenyl)-4-(trifluoromethyl)-N-[(3-trifluoromethoxyphenyl)methyl]-5-thiazolecarboxamide] showed a Min. conc. response of 10 µM and a pEC50 of 4.70 to 6.00.

Compound `COc1cccc(-c2nc(C(F)(F)F)c(C(=O)NCc3ccccn3)s2)c1` [Example 88] has a Min. conc. response of 30 µM.

`CC(NC(=O)c1sc(-c2ccccc2F)nc1C(F)(F)F)c1cccc(N(C)Cc2ccco2)c1` (stereo not drawn) [Example 35, 2-(2-fluorophenyl)-4-(trifluoromethyl)-N-[1-[3-[(2-furanylmethyl)methylamino]phenyl]ethyl]-5-thiazolecarboxamide] was tested, and the Min. conc. response was 0.3 µM and the pEC50 was 6.00 to 7.30.

`CCN(CC)CCOc1ccccc1-c1nc(C(F)(F)F)c(C(=O)NCc2cccc(F)c2)s1` [Example 54] was tested, and the Min. conc. response was 0.3 µM and the pEC50 was 4.70 to 6.00.

`CCN(Cc1ccncc1)Cc1cccnc1-c1nc(C(F)(F)F)c(C(=O)N[C@@H](C)c2cccc(N3CCOCC3)c2)s1` [Example 62] gave a Min. conc. response of 3 µM and a pEC50 of 6.00 to 7.30.

For `CC(NC(=O)c1sc(-c2csc3ccccc23)nc1C(F)(F)F)c1cccc(CN2CCCC2)c1` (stereo not drawn) [Example 103], the Min. conc. response was 0.3 µM.

`COc1ccc(F)cc1-c1nc(C(F)(F)F)c(C(=O)NC(C)c2cccc(N(C)C)c2)s1` (stereo not drawn) [Example 42, 2-(5-fluoro-2-methoxyphenyl)-4-(trifluoromethyl)-N-[1-[3-(dimethylamino)phenyl]ethyl]-5-thiazolecarboxamide] gave a Min. conc. response of 10 µM and a pEC50 of 6.00 to 7.30.

With `CCN(CC)CCOc1ccccc1-c1nc(C(F)(F)F)c(C(=O)N[C@@H](C)c2cccc(N3CCOCC3)c2)s1` [Example 100] the Min. conc. response was 30 µM.

In the case of `COc1ccccc1-c1nc(C(F)(F)F)c(C(=O)NC(C)c2cccc(N3CCCCC3)c2)s1` (stereo not drawn) [Example 32, 2-(2-methoxyphenyl)-4-(trifluoromethyl)-N-[1-[3-(1-piperidinyl)phenyl]ethyl]-5-thiazolecarboxamide], the Min. conc. response was 0.3 µM and the pEC50 was > 7.30.

Work on `O=C(NCc1cccc(F)c1)c1sc(-c2cccc(F)c2)nc1C(F)(F)F` [Example 93] yielded a Min. conc. response of 10 µM.

For `COc1ccccc1-c1nc(C(F)(F)F)c(C(=O)NCc2ccccn2)s1` [Example 84], the Min. conc. response was 30 µM.

`CC(NC(=O)c1sc(-c2cccc(N3CCOCC3)c2)nc1C(F)(F)F)c1cccc(C(F)(F)F)c1` (stereo not drawn) [Example 98] was tested, and the Min. conc. response was 3 µM.

With `COc1cccc([C@H](C)NC(=O)c2sc(-c3ccccc3CN3CCOCC3)nc2C(F)(F)F)c1` [Example 111] the Min. conc. response was 0.3 µM.

For `COc1ccccc1-c1nc(C(F)(F)F)c(C(=O)NC(C)c2cccc(Br)c2)s1` (stereo not drawn) [Example 96], the Min. conc. response was 3 µM.

Compound `COc1ccc(-c2nc(C(F)(F)F)c(C(=O)NCc3cccc(OC(F)(F)F)c3)s2)cc1OC` [Example 91] has a Min. conc. response of 30 µM.

For `COc1ccccc1-c1nc(C(F)(F)F)c(C(=O)NCc2cccc(F)c2)s1` [Example 27, 2-(2-methoxyphenyl)-4-(trifluoromethyl)-N-(3-fluorophenyl)methyl-5-thiazolecarboxamide], the Min. conc. response was 3 µM and the pEC50 was 4.70 to 6.00.

`COc1ccc(F)cc1-c1nc(C(F)(F)F)c(C(=O)NC(C)c2cccc(OC(F)(F)F)c2)s1` (stereo not drawn) [Example 41, 2-(5-fluoro-2-methoxyphenyl)-4-(trifluoromethyl)-N-[1-[3-(trifluoromethoxy)phenyl]ethyl]-5-thiazolecarboxamide] was tested, and the Min. conc. response was 10 µM and the pEC50 was 6.00 to 7.30.
